Assay results taken from ChEMBL document CHEMBL1201862, “PubChem BioAssay data set” (2004).
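Cultured in 96-well plates, cells were exposed to test compound for 48 hours across five concentrations. Abbreviation: GI50, concentration required for 50% inhibition of growth.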 Calls of active or inactive are those of the source. No stated cut-off is given here; in the data, active = GI50 up to about 1.1 µM and inactive = higher.

Key:
Assay in all cases: DTP human tumour cell line panel, 48 h
Malme-3M = test system: Malme-3M
CAKI-1 = test system: CAKI-1
HT-29 = test system: HT-29
LXFL 529 = test system: LXFL 529
DMS-273 = test system: DMS-273
DLD-1 = test system: DLD-1
A498 = test system: A498
IGROV-1 = test system: IGROV-1
TK-10 = test system: TK-10
ACHN = test system: ACHN
RPMI-8226 = test system: RPMI-8226
KM-20L2 = test system: KM-20L2
SK-MEL-28 = test system: SK-MEL-28
SK-OV-3 = test system: SK-OV-3
MOLT-4 = test system: MOLT-4
NCI-H460 = test system: NCI-H460
XF498 = test system: XF498
DMS-114 = test system: DMS-114
MCF7 = test system: MCF7
MDA-MB-231 = test system: MDA-MB-231

SMILES | GI50 (Malme-3M) | GI50 (CAKI-1) | GI50 (HT-29) | GI50 (LXFL 529) | GI50 (DMS-273) | GI50 (DLD-1) | GI50 (A498) | GI50 (IGROV-1) | GI50 (TK-10) | GI50 (ACHN) | GI50 (RPMI-8226) | GI50 (KM-20L2) | GI50 (SK-MEL-28) | GI50 (SK-OV-3) | GI50 (MOLT-4) | GI50 (NCI-H460) | GI50 (XF498) | GI50 (DMS-114) | GI50 (MCF7) | GI50 (MDA-MB-231)
Cc1ccccc1N(CC(=O)O)S(=O)(=O)c1ccccc1 | > 100 µM (inactive) | > 100 µM (inactive) | > 100 µM (inactive) | > 100 µM (inactive) | > 100 µM (inactive) | > 100 µM (inactive) | > 100 µM (inactive) | > 100 µM (inactive) | > 100 µM (inactive) | > 100 µM (inactive) | > 100 µM (inactive) | > 100 µM (inactive) | > 100 µM (inactive) | > 100 µM (inactive) | > 100 µM (inactive) | > 100 µM (inactive) | > 100 µM (inactive) | – | – | –
CC(C)C1N2CCCCC2[C@@H]2c3[nH]c4ccccc4c3CCN12 (stereo partly specified) | – | > 100 µM (inactive) | > 100 µM (inactive) | > 100 µM (inactive) | > 100 µM (inactive) | > 100 µM (inactive) | > 100 µM (inactive) | > 100 µM (inactive) | – | > 100 µM (inactive) | > 100 µM (inactive) | > 100 µM (inactive) | > 100 µM (inactive) | > 100 µM (inactive) | > 100 µM (inactive) | > 100 µM (inactive) | > 100 µM (inactive) | > 100 µM (inactive) | – | –
CC(=O)CCCCO | > 100 µM (inactive) | > 100 µM (inactive) | > 100 µM (inactive) | > 100 µM (inactive) | > 100 µM (inactive) | – | > 100 µM (inactive) | > 100 µM (inactive) | > 100 µM (inactive) | > 100 µM (inactive) | > 100 µM (inactive) | – | > 100 µM (inactive) | > 100 µM (inactive) | > 100 µM (inactive) | > 100 µM (inactive) | > 100 µM (inactive) | > 100 µM (inactive) | – | –
COC1(OC)CC2C=C(S(=O)(=O)c3ccccc3)C1N(Cc1ccccc1)C2=O (stereo unspecified) | 24.9 µM (inactive) | – | 28.1 µM (inactive) | 20.3 µM (inactive) | – | 24.3 µM (inactive) | 22.4 µM (inactive) | 37.2 µM (inactive) | 26.6 µM (inactive) | 41.3 µM (inactive) | – | 28.9 µM (inactive) | 31 µM (inactive) | 88.1 µM (inactive) | 23.2 µM (inactive) | 29.3 µM (inactive) | 19.1 µM (inactive) | 20.3 µM (inactive) | – | –
COc1ccc(C2c3cc4c(cc3OC(O)(CO)C2C(=O)O)OCO4)cc1.COc1ccc(C2c3cc4c(cc3OC3(O)COC(=O)C23)OCO4)cc1 (stereo unspecified) | 26.9 µM (inactive) | – | 24.7 µM (inactive) | 15.6 µM (inactive) | 4.14 µM (inactive) | 21.8 µM (inactive) | 89.3 µM (inactive) | 20.4 µM (inactive) | 67.6 µM (inactive) | – | 20.4 µM (inactive) | 43.2 µM (inactive) | 25.2 µM (inactive) | 40.1 µM (inactive) | 19.1 µM (inactive) | 19.1 µM (inactive) | 0.536 µM (active) | 22.2 µM (inactive) | – | –
Nc1nc(SCc2ccc([N+](=O)[O-])cc2)nc2c1ncn2C1OC(COP(=O)(O)O)C(O)C1O (stereo unspecified) | > 100 µM (inactive) | – | > 100 µM (inactive) | > 100 µM (inactive) | > 100 µM (inactive) | > 100 µM (inactive) | > 100 µM (inactive) | > 100 µM (inactive) | > 100 µM (inactive) | > 100 µM (inactive) | – | > 100 µM (inactive) | > 100 µM (inactive) | > 100 µM (inactive) | > 100 µM (inactive) | > 100 µM (inactive) | > 100 µM (inactive) | > 100 µM (inactive) | – | –
C[C@]12CC[C@H](OC(=O)Nc3ccccc3)CC1=CC[C@@H]1C2CC[C@]2(C)/C(=N/OC(=O)Nc3ccccc3)CCC12 (stereo partly specified) | 1.72 µM (inactive) | 1.81 µM (inactive) | 2.88 µM (inactive) | 1.12 µM (inactive) | 37.3 µM (inactive) | – | > 100 µM (inactive) | 4.19 µM (inactive) | 6.61 µM (inactive) | 7.14 µM (inactive) | 5.57 µM (inactive) | 3.2 µM (inactive) | – | > 100 µM (inactive) | 5.05 µM (inactive) | 25.6 µM (inactive) | 1.75 µM (inactive) | 2.71 µM (inactive) | – | –
O=C(NN1C(=O)C(Cl)C1c1cccc(O)c1)c1ccccc1O (stereo unspecified) | > 100 µM (inactive) | – | > 100 µM (inactive) | > 100 µM (inactive) | > 100 µM (inactive) | > 100 µM (inactive) | > 100 µM (inactive) | > 100 µM (inactive) | > 100 µM (inactive) | > 100 µM (inactive) | – | – | > 100 µM (inactive) | > 100 µM (inactive) | > 100 µM (inactive) | > 100 µM (inactive) | > 100 µM (inactive) | > 100 µM (inactive) | – | –
CCOC(=O)/C(O)=C1\C(=O)N(C)C(=O)C1c1cccc(OC)c1 (stereo unspecified) | > 100 µM (inactive) | > 100 µM (inactive) | > 100 µM (inactive) | – | > 100 µM (inactive) | > 100 µM (inactive) | 95.3 µM (inactive) | > 100 µM (inactive) | – | – | > 100 µM (inactive) | > 100 µM (inactive) | > 100 µM (inactive) | > 100 µM (inactive) | > 100 µM (inactive) | > 100 µM (inactive) | > 100 µM (inactive) | > 100 µM (inactive) | > 100 µM (inactive) | –
CC1=C(O)C(=O)C2C(=O)C1C(C)C2c1ccc(C)cc1 (stereo unspecified) | > 100 µM (inactive) | > 100 µM (inactive) | > 100 µM (inactive) | > 100 µM (inactive) | > 100 µM (inactive) | > 100 µM (inactive) | > 100 µM (inactive) | > 100 µM (inactive) | > 100 µM (inactive) | > 100 µM (inactive) | > 100 µM (inactive) | 3.06 µM (inactive) | > 100 µM (inactive) | > 100 µM (inactive) | > 100 µM (inactive) | > 100 µM (inactive) | > 100 µM (inactive) | – | – | –
C=C=C(C(=O)OC)[S+]([O-])c1ccccc1[N+](=O)[O-] (stereo unspecified) | > 100 µM (inactive) | > 100 µM (inactive) | > 100 µM (inactive) | > 100 µM (inactive) | > 100 µM (inactive) | – | > 100 µM (inactive) | > 100 µM (inactive) | > 100 µM (inactive) | > 100 µM (inactive) | > 100 µM (inactive) | > 100 µM (inactive) | – | > 100 µM (inactive) | > 100 µM (inactive) | > 100 µM (inactive) | > 100 µM (inactive) | > 100 µM (inactive) | – | –
COc1ccc(OC(C)=O)c2c1CCC=CC2=O | 20.1 µM (inactive) | – | 12.3 µM (inactive) | 9.57 µM (inactive) | 16.6 µM (inactive) | > 10 µM (inactive) | 21.5 µM (inactive) | 17.7 µM (inactive) | 18.3 µM (inactive) | 17.9 µM (inactive) | 1.01 µM (active) | – | 15 µM (inactive) | 17.5 µM (inactive) | 12.2 µM (inactive) | 19.1 µM (inactive) | 17.3 µM (inactive) | 19.1 µM (inactive) | – | –
CC(O)C(NC(=O)C(CS)NC(=O)C(CO)NC(=O)C(CCCCN)NC(=O)C(Cc1c[nH]c2ccccc12)NC(=O)C(Cc1ccc(O)cc1)NC(=O)C(CS)NC(=O)C(N)Cc1ccccc1)C(N)=O (stereo unspecified) | > 25 µM (inactive) | > 25 µM (inactive) | > 25 µM (inactive) | – | 20.9 µM (inactive) | 22.1 µM (inactive) | > 25 µM (inactive) | > 25 µM (inactive) | – | > 25 µM (inactive) | > 25 µM (inactive) | 23.9 µM (inactive) | 26.9 µM (inactive) | > 25 µM (inactive) | > 25 µM (inactive) | 22.2 µM (inactive) | 21.6 µM (inactive) | 35.8 µM (inactive) | > 25 µM (inactive) | > 25 µM (inactive)
COc1cc2c(cc1OC)C(Cl)C(c1ccc(Cl)c(Cl)c1)=C2Cl (stereo unspecified) | 12.6 µM (inactive) | 11.2 µM (inactive) | 4.38 µM (inactive) | 5.15 µM (inactive) | 3.86 µM (inactive) | – | 16.9 µM (inactive) | 10.7 µM (inactive) | 20.7 µM (inactive) | 10.2 µM (inactive) | 3.14 µM (inactive) | 8.71 µM (inactive) | 12 µM (inactive) | 15.5 µM (inactive) | 2.92 µM (inactive) | 4.09 µM (inactive) | < 0.01 µM (active) | 3.42 µM (inactive) | – | –
CCc1cccc(C(C)C)c1NC(=O)CC1Sc2ccccc2NC1=O (stereo unspecified) | 83.6 µM (inactive) | 0.241 µM (active) | 55.6 µM (inactive) | 43.5 µM (inactive) | 34 µM (inactive) | 47.4 µM (inactive) | 46.8 µM (inactive) | 37.8 µM (inactive) | > 100 µM (inactive) | 51.6 µM (inactive) | 48.5 µM (inactive) | – | > 100 µM (inactive) | > 100 µM (inactive) | 32.4 µM (inactive) | 71.4 µM (inactive) | 53.6 µM (inactive) | 44.1 µM (inactive) | – | –
CCc1cccc(C(C)C)c1NC(=O)C(=O)C(CC(=O)Nc1ccc(Cl)c(Cl)c1)C(=O)OC (stereo unspecified) | > 100 µM (inactive) | > 100 µM (inactive) | > 100 µM (inactive) | – | 49.4 µM (inactive) | 31 µM (inactive) | > 100 µM (inactive) | > 100 µM (inactive) | > 100 µM (inactive) | 78 µM (inactive) | 44 µM (inactive) | 26.2 µM (inactive) | > 100 µM (inactive) | > 100 µM (inactive) | > 100 µM (inactive) | 85.7 µM (inactive) | > 100 µM (inactive) | > 100 µM (inactive) | – | –
